Results from PMC6154694, “Absorption, Metabolic Stability, and Pharmacokinetics of Ginger Phytochemicals” (Molecules : A Journal of Synthetic Chemistry and Natural …, 2017).

Assays:
[1] = pH dependent kinetic solubility in hydrochloride, citrate and phosphate buffers; assay type: physicochemical; details: 23 °C, kinetic from dmso stock, tested 10 to 100 µM, n = 2
Procedure: Calibration standards were prepared by spiking 5 μL of DMSO stock solutions into 995 μL acetonitrile/buffer (1:1) mixture. Following centrifugation (10,000 rpm, 10 min, 25 °C) the reaction samples were diluted 1:1 with acetonitrile.

[2] = Mouse pharmacokinetic study of oral GE with and without ketoconazole, plasma with and without β-glucuronidase treatment; assay type: in vivo, male mice (C57BL6J); details: for Concentration Ratio (Total/Free) of GE Phenolics: GE administered group; for Concentration Ratio (Total/Free) of GE Phenolics / concentration at 0 h / concentration at 0.087 h / concentration at 0.167 h / concentration at 0.25 h / concentration at 0.5 h / concentration at 1 h / concentration at 2 h / concentration at 3 h / concentration at 4 h / concentration at 6 h / concentration at 8 h / concentration at 12 h: mouse plasma; for AUC(0-t) / Cmax / Tmax / concentration at 0 h / concentration at 0.087 h / concentration at 0.167 h / concentration at 0.25 h / concentration at 0.5 h / concentration at 1 h / concentration at 2 h / concentration at 3 h / concentration at 4 h / concentration at 6 h / concentration at 8 h / concentration at 12 h: male, C57BL6J; for AUC(0-t) / Cmax / Tmax: mouse, plasma, po, 250 mg/kg
Procedure: A solution formulation of GE was prepared by using 5% ethanol, 5% Tween 80, 40% polyethylene glycol, and 50% corn oil. The dose volume was 10 mL/kg and the dose administered was 250 mg/kg GE.
Pharmacokinetic study in male mice (C57BL6J, Harlan Laboratories, Indianapolis, IN, USA) was run with 36 animals in each group at a GE dose of 250 mg/kg with a dose volume of 10 mL/kg. One group was given GE alone and in the second group GE was co-administered with KTZ (50 mg/kg). A terminal sampling design was used to collect blood samples at 0 (pre-dose), 0.08, 0.16, 0.25, 0.5, 1, 2, 3, 4, 6, 8, and 12 h. At each time, 1 mL of blood was collected in ethylenediaminetetraacetic acid di-potassium salt (K2EDTA) tubes (BD Biosciences, Franklin Lakes, NJ, USA). Plasma was separated by centrifugation of samples at 4000 rpm for 10 min and stored below −60 °C till bioanalysis. All experiments were performed with approval from the Institutional Animal Care and Use Committee (IACUC, approval code: A14031). All animals were acclimatized for five days before dosing in the experimental area. Food and water was provided ad libitum throughout the study period. Animals were marked and housed (three per cage, n = 36 per group) in polypropylene cages and maintained in controlled environmental conditions with 12 h light and dark cycles. The temperature and humidity of the room was maintained between 22 ± 3 °C and 30% to 50%, respectively, and approximately 10–12 fresh air change cycles per hour.
To confirm the presence of GE glucuronide conjugates, plasma (100 μL) was treated with βgd (20 μL, 500 units) and incubated at 37 °C for 1 h. Each sample was analyzed twice with and without β-gd treatment. Samples without gde treatment were diluted with 20 μL of buffer. Total (conjugated + free) and free ginger phenolics data were reported following bioanalysis.
All in vitro and in vivo samples were processed by protein precipitation method. An aliquot (100 μL) of the sample was spiked with 200 μL of acetonitrile containing dihydrocapsaicin as internal standard (IS) and vortex mixed for 3 min. The tubes were centrifuged at 12,000 rpm for 10 min and an aliquot of supernatant was transferred into autosampler vials for analysis. The stock solutions of 6G, 8G, 10G, and 6S were prepared in ACN/water (70:30) at 1 mg/mL. A calibration curve (CC) range of 2–2000 ng/mL was employed for the quantification of analytes and IS concentration was 150 ng/mL for each analysis. The CC consisted of blank, blank with IS and seven non-zero calibration standards. The calibration standards were within ±15% of the nominal concentration and lower limit of quantification was within ±20% of nominal. All samples were analyzed using liquid chromatography tandem mass spectrometry (LC-MS/MS) method (Agilent 6410 series, Santa Clara, CA, USA). A positive ionization mode with multiple reaction monitoring (MRM, m/z Q1/Q3) of 6G (m/z 277.1/177.1, retention time (RT) 2.0 min), 8G (m/z 305.1/177.1, RT 4.0 min), 10G (m/z 333.1/177.1, RT 7.7 min), 6S (m/z 277.1/137.1, RT 5.1 min), and IS (m/z 308.2/137.1, RT 3.4 min) was employed. The ion spray voltage was set at 3500 V, ionization temperature was set to 300 °C and drying gas flow rate was 10 L/min. Data acquisition and quantitation were performed using Mass Hunter software (Agilent Technologies, Wilmington, DE, USA). Separation was achieved using HP1100 series LC (Agilent Technologies) with an Agilent Zorbax reversed-phase (SB-C18, 2.1 × 50 mm, 5.0 μm) column. A gradient method was employed to separate the individual GE phenolics using mobile phase A (0.1% formic acid in water) and mobile phase B (Acetonitrile). The gradient elution method with 50% B at 0 min, 90% B at 5 min, held for 2.1 min, back to 50% B at 7.1 min with a flow rate of 0.2 mL/min. An injection volume of 2 μL was used for analysis. […]

[3] = Liver microsomal stability, rat; assay type: in vitro ADME, IGS Sprague-Dawley rat; details: protein 0.5 mg/mL
Procedure: Pooled liver microsomes from CD1 mouse, IGS Sprague-Dawley rat, Beagle dog, and mixed gender human were used for assays. Incubations (1 mL) consisted of liver microsomes (0.5 mg/mL), NADPH (1 mM) and 100 mM sodium phosphate buffer (pH 7.4). Following pre-incubation (10 min, 37 °C), reactions were initiated by spiking ACN/DMSO (80:20) stock solutions of GE phenolics (5 μL, 10 μM). Samples (100 μL) were withdrawn at 0, 5, 10, 15, 20 and 30 min and quenched with 200 μL acetonitrile containing internal standard. Concomitant NADPH-free control incubations were prepared similarly.

[4] = 250 mg/kg GE + 50 mg/kg KTZ oral, +KTZ −βgd

solubility at 2 h ([1]; 100 mM citrate buffer, aqueous buffer, pH 4, citrate buffer): < 10 µM
solubility at 2 h ([1]; 100 mM phosphate buffer, aqueous buffer, pH 7.4, phosphate buffer): < 10 µM
solubility at 2 h ([1]; simulated gastric fluid, pH 2, hydrochloride buffer): < 10 µM
AUClast Ratio ([2]; +KTZ +βgd, reference GE group co-administered with KTZ untreated with βgd): 11
AUClast Ratio ([2]; +KTZ +βgd, reference GE group untreated with βgd): 32
AUClast Ratio ([2]; +KTZ −βgd, reference GE group untreated with βgd): 3
Concentration Ratio (Total/Free) of GE Phenolics ([2]; 0 h): 0
Concentration Ratio (Total/Free) of GE Phenolics ([2]; 0.087 h): 5
Concentration Ratio (Total/Free) of GE Phenolics ([2]; 0.167 h): 11
Concentration Ratio (Total/Free) of GE Phenolics ([2]; 0.25 h): 24
Concentration Ratio (Total/Free) of GE Phenolics ([2]; 0.5 h): 13
Concentration Ratio (Total/Free) of GE Phenolics ([2]; 1 h): 8
Concentration Ratio (Total/Free) of GE Phenolics ([2]; 2 h): 19
Concentration Ratio (Total/Free) of GE Phenolics ([2]; 3 h): 9
Concentration Ratio (Total/Free) of GE Phenolics ([2]; 4 h): 9
Concentration Ratio (Total/Free) of GE Phenolics ([2]; 6 h): 15
Concentration Ratio (Total/Free) of GE Phenolics ([2]; 8 h): 0
Concentration Ratio (Total/Free) of GE Phenolics ([2]; 12 h): 0
AUC(0-t) ([2]; 250 mg/kg GE oral, −βgd): 0.0618 µg·h/mL
Cmax ([2]; 250 mg/kg GE oral, −βgd): 56 ng/mL
Tmax ([2]; 250 mg/kg GE oral, −βgd): 30 min
AUC(0-t) [2, 4]: 0.174 µg·h/mL
Cmax [2, 4]: 79 ng/mL
Tmax [2, 4]: 30 min
concentration at 0 h ([2]; 250 mg/kg GE oral, 0 h, −βgd): 0 µg/mL
concentration at 0.087 h ([2]; 250 mg/kg GE oral, 0.087 h, −βgd): 43.1 ± 35.3 ng/mL
concentration at 0.167 h ([2]; 250 mg/kg GE oral, 0.167 h, −βgd): 20.7 ± 6.15 ng/mL
concentration at 0.25 h ([2]; 250 mg/kg GE oral, 0.25 h, −βgd): 25.9 ± 4.43 ng/mL
concentration at 0.5 h ([2]; 250 mg/kg GE oral, 0.5 h, −βgd): 56 ± 31.6 ng/mL
concentration at 1 h ([2]; 250 mg/kg GE oral, 1 h, −βgd): 2.21 ± 0.62 ng/mL
concentration at 2 h ([2]; 250 mg/kg GE oral, 2 h, −βgd): 4.08 ± 1.61 ng/mL
concentration at 3 h ([2]; 250 mg/kg GE oral, 3 h, −βgd): 5.25 ± 1.06 ng/mL
concentration at 4 h ([2]; 250 mg/kg GE oral, 4 h, −βgd): 3.06 ± 1.19 ng/mL
concentration at 6 h ([2]; 250 mg/kg GE oral, 6 h, −βgd): 2.43 ± 1.16 ng/mL
concentration at 8 h ([2]; 250 mg/kg GE oral, 8 h, −βgd): 5.04 ± 5.89 ng/mL
concentration at 12 h ([2]; 250 mg/kg GE oral, 12 h, −βgd): 0.62 ± 0.72 ng/mL
concentration at 0 h ([2]; 250 mg/kg GE with 50 mg/kg ketoconazole oral, 0 h, −βgd): 0 µg/mL
concentration at 0.087 h ([2]; 250 mg/kg GE with 50 mg/kg ketoconazole oral, 0.087 h, −βgd): 0 ng/mL
concentration at 0.167 h ([2]; 250 mg/kg GE with 50 mg/kg ketoconazole oral, 0.167 h, −βgd): 5.66 ± 5.12 ng/mL
concentration at 0.25 h ([2]; 250 mg/kg GE with 50 mg/kg ketoconazole oral, 0.25 h, −βgd): 20.5 ± 21.6 ng/mL
concentration at 0.5 h ([2]; 250 mg/kg GE with 50 mg/kg ketoconazole oral, 0.5 h, −βgd): 14000 ng/mL
concentration at 1 h ([2]; 250 mg/kg GE with 50 mg/kg ketoconazole oral, 1 h, −βgd): 54.5 ± 58.3 ng/mL
concentration at 2 h ([2]; 250 mg/kg GE with 50 mg/kg ketoconazole oral, 2 h, −βgd): 27900 ng/mL
concentration at 3 h ([2]; 250 mg/kg GE with 50 mg/kg ketoconazole oral, 3 h, −βgd): 45.8 ± 48.2 ng/mL
concentration at 4 h ([2]; 250 mg/kg GE with 50 mg/kg ketoconazole oral, 4 h, −βgd): 6.52 ± 1.14 ng/mL
concentration at 6 h ([2]; 250 mg/kg GE with 50 mg/kg ketoconazole oral, 6 h, −βgd): 8.07 ± 5.96 ng/mL
concentration at 8 h ([2]; 250 mg/kg GE with 50 mg/kg ketoconazole oral, 8 h, −βgd): 3.71 ± 2.46 ng/mL
concentration at 12 h ([2]; 250 mg/kg GE with 50 mg/kg ketoconazole oral, 12 h, −βgd): 2.61 ± 1.41 ng/mL
remaining at 0.5 h, 10 µM ([3]; IGS Sprague-Dawley, pooled liver microsomes, pH 7.4, substrate 10 µM, n = 2, read-out: % Remaining at 30 min): 13%
Intrinsic Clearance ([3]; rat liver microsomes, substrate 10 µM, 45 mg protein/g liver): 5.4 mL/min/g Liver
Structure (SMILES): CCCCCCCCCC(O)CC(=O)CCc1ccc(O)c(OC)c1 (centres unmarked) [10G, 10-gingerol]
